Read-outs that look alike come from different tables or passages of the source. One block for each molecule: values may come before it.
How the values were obtained:
HeLa = assay: CCK-8 anti-proliferation assay, HeLa; assay type: cell-based, human; conditions: mean ± SD; for inhibition at 20 µM: read-out: Inhibition Rate (%) at 20 μM HeLa
Procedure: (§1) Human cervical cancer HeLa, human prostate cancer PC3, human colonic carcinoma HCT116, human lung carcinoma A549, human breast cancer MDA-MB-231, mouse melanoma B16, human ovarian cancer SKOV3, human hepatoma Hep3B, and human liver L02 cells were purchased from the Cell Bank of Shanghai Institute of Biochemistry and Cell Biology, Chinese Academy of Sciences (Shanghai, China). The HeLa, A549, B16, PC3, MDA-MB-231, HCT116, and L02 cells were cultured in Dulbecco’s modified Eagle medium (DMEM, Gibco Inc.; Gaithersburg, MD, USA). All cultures were supplied with 10% fetal bovine serum (FBS; YHSM, Beijing, China), 100 IU/mL of penicillin, and 100 μg/mL of streptomycin, and cells were incubated at 37 °C in an atmosphere of 5% CO2.
(§2) A CCK-8 kit (MCE, USA) was used to perform a CCK-8 assay. Cells were plated and grown in the 96-well plates for the indicated period (48 h) in the incubator, followed by an incubation with the CCK-8 solutions for 1–4 h. Subsequently, the absorbance (450 nm) was measured by a microplate reader. The median inhibitory concentration (IC50) was determined from the dose–response curve. Experiments were performed in a triplicate.

PC3 = assay: CCK-8 anti-proliferation assay, PC3; assay type: cell-based, human; conditions: mean ± SD; for inhibition at 20 µM: PC-3, 20 μM, read-out: Inhibition Rate (%) at 20 μM PC3
Procedure: as §1, §2

A549 = assay: CCK-8 anti-proliferation assay, A549; assay type: cell-based, human; conditions: mean ± SD; for inhibition at 20 µM: A549, 20 μM, read-out: Inhibition Rate (%) at 20 μM A549
Procedure: as §1, §2

HCT116 = assay: CCK-8 anti-proliferation assay, HCT116; assay type: cell-based, human; conditions: mean ± SD; for inhibition at 20 µM: HCT-116, 20 μM, read-out: Inhibition Rate (%) at 20 μM HCT116
Procedure: as §1, §2

[1] = test system: four cancer cell lines (HeLa, PC3, A549, and HCT116); assay: CCK-8 inhibition rates over four cancer cell lines; assay type: cell-based; conditions: Homo sapiens
Procedure: First, the inhibition rates at 20 μM for all newly synthesized compounds were evaluated on four cancer cell lines (HeLa, PC3, A549, and HCT116) by a CCK-8 assay. […] A variety of aliphatic amine substituents were well tolerated (4e, 4f, 5c, and 8f).
as §1, §2

[2] = test system: various cancer cell lines; design: method as in PMID 23651330; conditions: read-out: IC50 against various cancer cell lines; cited from earlier work
MDA-MB-231 = assay: CCK-8 anti-proliferation assay, MDA-MB-231; assay type: cell-based, human; conditions: Homo sapiens, MDA-MB-231, 48 h, mean ± SD
Procedure: as §1, §2

B16 = assay: CCK-8 anti-proliferation assay, B16; assay type: cell-based; conditions: Mus musculus, B16, 48 h, B16 mouse melanoma, mean ± SD
Procedure: as §1, §2

SKOV3 = assay: CCK-8 anti-proliferation assay, SKOV3; assay type: cell-based; conditions: Homo sapiens, SK-OV-3, 48 h, mean ± SD
Procedure: as §1, §2

Hep3B = assay: CCK-8 anti-proliferation assay, Hep3B; assay type: cell-based, human; conditions: Homo sapiens, 48 h, mean ± SD
Procedure: as §1, §2

L02 cells = assay: CCK-8 assay on normal cells, L02; assay type: cell-based; conditions: L02 human normal hepatocytes, 48 h, mean ± SD
Procedure: as §1, §2

[3] = HeLa, PC3, A549, HCT116, CCK-8, read-out: inhibition rate, span over the four cancer cell lines
[4] = one or two of the four cell lines, read-out: inhibition rates against one or two types of tumor cell lines

Molecule: COc1cc(-c2ccc(/C=C(\C#N)C(=O)NCCN3CCOCC3)o2)c(OC)c2ccccc12 [Compound 4c, (E)-2-cyano-3-(5-(1,4-dimethoxynaphthalen-2-yl)furan-2-yl)-N-(2-morpholinoethyl)acrylamide]
inhibition at 20 µM (HeLa; Homo sapiens, 20 μM): 24.23 ± 0.01%
inhibition at 20 µM (PC3; Homo sapiens): 8.99 ± 0.09%
inhibition at 20 µM (A549; Homo sapiens): 11.25 ± 0.05%
inhibition at 20 µM (HCT116; Homo sapiens): 18.78 ± 0.04%
inhibition at 20 µM [1, 3]: 8.99 to 24.2%

Molecule: COc1cc(-c2ccc(/C=C(\C#N)C(=O)NC3CC(C)(C)NC(C)(C)C3)o2)c(OC)c2ccccc12 [Compound 4e, (E)-2-cyano-3-(5-(1,4-dimethoxynaphthalen-2-yl)furan-2-yl)-N-(2,2,6,6-tetramethylpiperidin-4-yl)acrylamide]
inhibition at 20 µM (HeLa; Homo sapiens, 20 μM): 59.1 ± 0.21%
inhibition at 20 µM (PC3; Homo sapiens): 15.8 ± 0.33%
inhibition at 20 µM (A549; Homo sapiens): 59.49 ± 0.34%
inhibition at 20 µM (HCT116; Homo sapiens): 40.53 ± 0.03%
inhibition at 20 µM [1, 4]: > 50%

Molecule: COc1cc(-c2ccc(/C=C(\C#N)C(=O)Nc3ccccc3)o2)c(OC)c2ccccc12 [Compound 4h, (E)-2-cyano-3-(5-(1,4-dimethoxynaphthalen-2-yl)furan-2-yl)-N-phenylacrylamide]
inhibition at 20 µM (HeLa; Homo sapiens, 20 μM): 9.49 ± 0.16%
inhibition at 20 µM (PC3; Homo sapiens): 19.53 ± 0.17%
inhibition at 20 µM (A549; Homo sapiens): 0.25 ± 0.13%
inhibition at 20 µM (HCT116; Homo sapiens): 11.5 ± 0.14%
inhibition at 20 µM [1, 3]: 0.25 to 32.4%

Molecule: COc1cc(N2CCC(N(C)C)CC2)ccc1NC(=O)c1ccc(-c2cc(OC)c3ccccc3c2OC)o1 [Compound 8i, 5-(1,4-Dimethoxynaphthalen-2-yl)-N-(4-(4-(dimethylamino)piperidin-1-yl)-2-methoxyphenyl)furan-2-carboxamide]
inhibition at 20 µM (HeLa; Homo sapiens, 20 μM): 55.62 ± 0.12%
inhibition at 20 µM (PC3; Homo sapiens): 25.11 ± 0.05%
inhibition at 20 µM (A549; Homo sapiens): 31.67 ± 0.07%
inhibition at 20 µM (HCT116; Homo sapiens): 47.78 ± 0.19%
inhibition at 20 µM [1, 4]: > 50%

Molecule: NS(=O)(=O)c1cccc2c1C(=O)C=C(Nc1cccnc1)C2=O [Ly-5]
IC50 [2]: 0.5 to 1.4 µM

IC50 (HeLa; Homo sapiens, 48 h): 7.06 ± 1.17 µM
IC50 (PC3; Homo sapiens, PC-3, 48 h, 48 h): 1.2 ± 0.03 µM
IC50 (A549; Homo sapiens, A549, 48 h, 48 h): 7.55 ± 0.06 µM
IC50 (HCT116; Homo sapiens, HCT-116, 48 h): 7.22 ± 3.14 µM
IC50 (MDA-MB-231): 8.17 ± 0.16 µM
IC50 (B16): 24.1 ± 0.7 µM
IC50 (SKOV3): 4.66 ± 0.13 µM
IC50 (Hep3B): 4.36 ± 0.05 µM
Molecule: C[C@H](NC(=O)/C(C#N)=C/c1cccc(Br)n1)c1ccccc1 [WP1066, reference compound]
IC50 (L02 cells): 3.45 ± 0.41 µM

Molecule: (E)-2-cyano-3-(5-(1,4-dioxo-1,4-dihydronaphthalen-2-yl)furan-2-yl)-N-(3-(trifluoromethyl)phenyl)acrylamide [Compound 5g]
Inhibition Rate (%) at 20 μM HeLa (HeLa; 20 μM): 27.98 ± 0.36%
Inhibition Rate (%) at 20 μM PC3 (PC3; 20 μM): 11.20 ± 0.02%
Inhibition Rate (%) at 20 μM A549 (A549; 20 μM): 32.35 ± 0.95%
Inhibition Rate (%) at 20 μM HCT116 (HCT116; 20 μM): 28.25 ± 0.04%

Reference: PMC9609996, “SAR Study and Molecular Mechanism Investigation of Novel Naphthoquinone-furan-2-cyanoacryloyl Hybrids with Antitumor Activity” (Pharmaceutics, 2022)
